Test results from US20010000731A1, “Method for the prevention and treatment of chronic venous insufficiency” (priority 1999, published 2001).

tested on: swelling of the recto-anus induced by croton oil; assay: Croton oil-induced hemorrhoid model in rats (recto-anus coefficient, RAC); assay type: in vivo, rat; conditions: male SD rats; pure alkaloid oral 1 mg/kg; RAC determined 24 hours after induction; FIG. 3
Procedure: Male SD rats (6 weeks old, approximately 140 g) were purchased from Harlan Sprague Dawley and allowed to acclimate for 1 week. The rats were maintained in a pathogen-free facility in accordance with the National Research Council of Laboratory Animal care and use guidelines. Each experiment was preformed with age-matched rats 7- 8 weeks old. The croton oil-induced hemorrhoid model in rats was performed according to the method published by Nishiki (Nishiki et al. (1988) Folia Pharmacology Japan 92:215- 225; Nishiki et al. (1988) Folia Pharmacol. Japan 92:227-240). Briefly, a cotton swab with a diameter of 4 mm soaked with 0.16 mL of inducer (deionized water: pyridine : ethyl ether: 6% croton oil/ethyl ether (1:4:5:10) was applied to the rat's anus for 12 seconds. The final concentration of croton oil was 3%. The edema developed linearly until 7-8 hours after application and the severity of the edema was sustained for more than 24 hours. Twenty-four hours later, recto-anus tissue (approx. 10 mm long) was isolated after the rats were euthanized. The weights of rat body and recto-anus were measured. The recto-anus coefficient (RAC) was calculated using the formula: weight of recto-anus (mg)/body weight (g).
The average RAC of croton oil-treated rats was 2.10, which was 38.2% higher than that the rats treated with vehicle only (RAC=1.52). Vehicle alone did cause significant swelling of the recto-anus as compared with the rats without any treatment (RAC=0.98). Twenty-four hours after hemorrhoid induction with croton oil followed by treatment orally with prickly ash extract at either 6 mg/kg or 30 mg/kg and by treatment topically with prickly ash extract at 6 mg/mL in 1:1 aquaphor, the RAC of rats was determined.
This experiment was performed as described in Example 5. […] Twenty-four hours after hemorrhoid induction with croton oil followed by treatment orally with the pure alkaloids isolated from prickly ash extract at 1 mg/kg, the RAC of rats was determined. […]

Row | Molecule | inhibition of the swelling of the recto-anus induced by croton oil (RAC)
1 | COc1cc2c(cc1O)C[C@H]1c3c(cc(OC)c(O)c3-2)CC[N+]1(C)C [Laurifoline] | partially reduced
2 | COc1ccc2c(c1O)-c1c(O)c(OC)cc3c1[C@H](C2)[N+](C)(C)CC3 [Magnoflorine] | completely inhibited
3 | Chelerythrine | partially reduced
